Measurements taken from US7375125B2, “Melanocortin-4 receptor binding compounds and methods of use thereof” (Ore Pharmaceuticals, Inc., priority 1999, dated 2008).
Where a name gives a salt, the structure may show the parent alone.

System: lean C57BL/6J mice
Assay: In vivo assay for MC4-R antagonist activity: food intake of food deprived lean mice treated with MT II
Conditions: 15 nmol intracerebroventricular prior to MT II 0.05 nmol, six hour period (FIGS. 2, 3)
Protocol: The following in vivo assay was used to test the effects of MC4-R antagonists on mice.
Male lean C57BL/6J mice were individually housed in macrolon cages (22±2 C.°; 12:12 h light/dark cycle with lights off at 6 pm). Tap water and mouse chow diet were given ad libitum. Mice were stereotaxically implanted with a chronic guide cannula aimed to the third ventricle (intracerabroventricular) one week prior to testing.
In this experiment, food deprived lean mice were injected intracerabroventricularly with either Compound N or Compound O, at a dose of 15 nmol prior to injection of MT II at the dose of 0.05 nmol.

| SMILES | effect on food intake of mice treated with the MC4-R agonist MT II |
| --- | --- |
| COc1ccc([N+](=O)[O-])cc1CSc1ccccc1C1=NCCCN1 [N, 2-[2-(2-Methoxy-5-nitro-benzylsulfanyl)-phenyl]-1,4,5,6-tetrahydro-pyrimidine; hydrobromide] | partially reverses the effect |
| c1ccc(C2=NCCCN2)c(SCc2cccc3ccccc23)c1 [O, 2-[2-(Naphthalen-1-ylmethylsulfanyl)-phenyl]-1,4,5,6-tetrahydro-pyrimidine; hydrochloride] | did not significantly effect the food intake |
